“And” between values parts separate entries of the source, which are not always exact repeats. Equal entries are not always repeated. Where two headings read alike, the source gives them in different places.
Legend:
[1] = tested on: metastatic castration resistant prostate cancer (mCRPC); conditions: cited from earlier work
castration-resistant PCa = test: Clinical trial of second-line intermittent AA therapy (NCT02415621); assay type: in vivo, human
Text: Prior theoretical, pre-clinical, and clinical studies have questioned the utilization of MTD treatment in non-curative settings. That is, continuous MTD treatment fails to consider the evolutionary dynamics of treatment presponse, where competition, adaptation and selection between treatment sensitive and resistant cells contribute to therapy failure. In fact, this strategy, by maximally selecting for resistant phenotypes and eliminating other competing populations, may actually accelerate the emergence of resistant populations—a well-studied evolutionary phenomenon termed “competitive release.” In part to address this issue, prior trials have used an intermittent on- and off-ADT (IADT) to reduce toxicity and delay time to progression (TTP). […]
Survival benefits have not been confirmed clinically, which can be due to the conservative trial designs of long on-treatment cycles (7-8 months) and short off-cycles. […] PSA values can be monitored every four weeks as done in the clinic. […] For Patient 36, relative PSA values of 50% or 90% of pre-treatment PSA levels as triggers to pause IADT and pre-treatment PSA levels to resume IADT yield longer TTP than the static triggers (PSA monitored every 4 weeks, IADT is paused if PSA<4 ng/mL for consecutive 36 weeks, and IADT resumes if PSA>10 ng/mL). […]

PCa = conditions: cited from earlier work
hormone-refractory PCa = conditions: docetaxel added at end of ADT; cited from earlier work
PCaSC = conditions: cited from earlier work
[2] = tested on: metastatic, hormone-sensitive PCa; conditions: cited from earlier work
advanced prostate cancer = conditions: patients with advanced prostate cancer; cited from earlier work
[3] = abiraterone plus gonadotropin-releasing hormone analog, AA-302 trial
[4] = docetaxel plus ADT, added at beginning of hormone therapy

SMILES | PSA response rate [1, 3] | median time to progression [1, 3] | overall survival compared to prednisone or placebo ([1]; second-line hormone therapy) | median TTP (castration-resistant PCa; continuous MTD AA) | median TTP (castration-resistant PCa; intermittent AA therapy, median not reached) | increase in overall survival time compared to ADT alone (PCa; docetaxel added at beginning of long-term hormone therapy) | TTP (PCa; [4]) | overall survival time (PCa; [4]) | increase in survival (hormone-refractory PCa) | survival (hormone-refractory PCa) | PCaSC docetaxel sensitivity as share of PCaC sensitivity (PCaSC) | survival benefit ([2]; CHAARTED trial, LVD patients) | overall survival benefit ([2]; CHAARTED trial, patients with HVD) | increase in overall survival ([2]; GETUG-AFU15, high volume disease (HVD), DOC with continuous ADT, non-significant) | survival benefit ([2]; GETUG-AFU15, low volume disease (LVD)) | overall survival benefit ([2]; STAMPEDE trial, median follow-up of 43 months) | Total tumor regression rate (δS+δC), median (advanced prostate cancer) | Total tumor regression rate (δS+δC), range (advanced prostate cancer)
CC(=O)O[C@H]1CC[C@@]2(C)C(=CC[C@@H]3[C@@H]2CC[C@]2(C)C(c4cccnc4)=CC[C@@H]32)C1 [abiraterone acetate] | 62% | 11.1 months | prolong overall survival | 13 months | at least 33 months | – | – | – | – | – | – | – | – | – | – | – | – | –
CC(=O)O[C@@]12CO[C@@H]1C[C@H](O)[C@@]1(C)C(=O)[C@H](O)C3=C(C)[C@@H](OC(=O)[C@H](O)[C@@H](NC(=O)OC(C)(C)C)c4ccccc4)C[C@@](O)([C@@H](OC(=O)c4ccccc4)[C@H]21)C3(C)C [docetaxel] | – | – | – | – | – | 10-13 months | 20.2 months | 81 months and 57.6 months | 2.4 months | 18.9 months | about 25% | no statistically significant survival benefit | statistically significant overall survival benefit | 20% | no survival benefit | more than 12 months | 0.015 day⁻¹ | 0.006 to 0.032 day⁻¹

From patent publication US20230005594A1, “CLINICAL DECISION SUPPORT FOR PERSONALIZED ADAPTIVE PROSTATE CANCER THERAPY” (H. LEE MOFFITT CANCER CENTER AND RESEARCH INSTITUTE, INC., priority 2019, published 2023)
